Each block holds one compound with its values, some of them ahead of it.
What was measured:
CDK2 = CDK2 (UniProt P24941); assay: Enzyme Assay
EGFR (mouse) = EGFR (mouse) (UniProt P00533); conditions: 3t3

SMILES: O=C1Nc2ccc(S(=O)(=O)N3CCc4cc(Br)ccc43)cc2/C1=C/c1[nH]cc2c1CCOC2=O
- IC50 (CDK2): 2860 nM
- IC50 (EGFR (mouse)): > 20000 nM

- IC50 (CDK2): 1550 nM
SMILES: COc1ccc2c(c1)NC(=O)/C2=C\c1[nH]cc2c1CCOC2=O

SMILES: O=C1Nc2ccc(Cl)cc2/C1=C/c1[nH]cc2c1CCOC2=O
- IC50 (CDK2): 90 nM
- IC50 (EGFR (mouse)): > 20000 nM

SMILES: O=C1Nc2cc(-c3ccc(F)cc3)ccc2/C1=C/c1[nH]cc2c1CCOC2=O
- IC50 (CDK2): 1060 nM
- IC50 (EGFR (mouse)): > 20000 nM

SMILES: O=C1Nc2cc(Cl)ccc2/C1=C/c1[nH]cc2c1CCNC2=O
- IC50 (CDK2): 7230 nM
- IC50 (EGFR (mouse)): > 20000 nM

SMILES: O=C1Nc2ccc(C(=O)N3CCOCC3)cc2/C1=C/c1[nH]cc2c1CCNC2=O
- IC50 (CDK2): 560 nM
- IC50 (EGFR (mouse)): > 20000 nM

SMILES: Cc1c(Br)ccc2c1/C(=C/c1[nH]cc3c1CCOC3=O)C(=O)N2
- IC50 (CDK2): 160 nM
- IC50 (EGFR (mouse)): > 20000 nM

SMILES: O=C1Nc2ccc(S(=O)(=O)N3CCCc4ccccc43)cc2/C1=C/c1[nH]cc2c1CCOC2=O
- IC50 (CDK2): 550 nM
- IC50 (EGFR (mouse)): > 20000 nM

SMILES: O=C1Nc2cc(-c3ccccc3)ccc2/C1=C/c1[nH]cc2c1CCOC2=O
- IC50 (CDK2): > 10000 nM
- IC50 (EGFR (mouse)): > 20000 nM

SMILES: O=C1Nc2ccc(F)cc2/C1=C/c1[nH]cc2c1CCOC2=O
- IC50 (CDK2): 80 nM
- IC50 (EGFR (mouse)): > 20000 nM

SMILES: CN(C)S(=O)(=O)c1ccc2c(c1)/C(=C/c1[nH]cc3c1CCOC3=O)C(=O)N2
- IC50 (CDK2): 30 nM
- IC50 (EGFR (mouse)): > 20000 nM

SMILES: O=C1Nc2ccc(S(=O)(=O)N3CCc4ccccc43)cc2/C1=C/c1[nH]cc2c1CCOC2=O
- IC50 (CDK2): 350 nM
- IC50 (EGFR (mouse)): > 20000 nM

- IC50 (CDK2): 5690 nM
- IC50 (EGFR (mouse)): > 20000 nM
SMILES: O=C1Nc2cc(-c3cccnc3)ccc2/C1=C/c1[nH]cc2c1CCOC2=O

SMILES: O=C1Nc2cc(F)ccc2/C1=C/c1[nH]cc2c1CCOC2=O
- IC50 (CDK2): 360 nM
- IC50 (EGFR (mouse)): > 20000 nM

SMILES: O=C1Nc2ccc(-c3ccccc3)cc2/C1=C/c1[nH]cc2c1CCNC2=O
- IC50 (CDK2): 3200 nM
- IC50 (EGFR (mouse)): > 20000 nM

SMILES: COc1ccc2c(c1)/C(=C/c1[nH]cc3c1CCNC3=O)C(=O)N2
- IC50 (CDK2): 290 nM
- IC50 (EGFR (mouse)): > 20000 nM

SMILES: CN(c1cccc(Cl)c1)S(=O)(=O)c1ccc2c(c1)/C(=C/c1[nH]cc3c1CCOC3=O)C(=O)N2
- IC50 (CDK2): 9950 nM
- IC50 (EGFR (mouse)): > 20000 nM

SMILES: CNS(=O)(=O)c1ccc2c(c1C)/C(=C/c1[nH]cc3c1CCOC3=O)C(=O)N2
- IC50 (CDK2): 5.5 nM
- IC50 (EGFR (mouse)): > 20000 nM

SMILES: O=C1Nc2ccc(F)cc2/C1=C/c1[nH]cc2c1CCNC2=O
- IC50 (CDK2): 300 nM
- IC50 (EGFR (mouse)): > 20000 nM

SMILES: NS(=O)(=O)c1ccc2c(c1)/C(=C/c1[nH]cc3c1CCOC3=O)C(=O)N2
- IC50 (CDK2): 10 nM
- IC50 (EGFR (mouse)): > 20000 nM

SMILES: CNS(=O)(=O)c1ccc2c(c1)/C(=C/c1[nH]cc3c1CCNC3=O)C(=O)N2
- IC50 (CDK2): 9 nM
- IC50 (EGFR (mouse)): > 20000 nM

SMILES: Cc1c(Cl)ccc2c1/C(=C/c1[nH]cc3c1CCOC3=O)C(=O)N2
- IC50 (CDK2): 310 nM
- IC50 (EGFR (mouse)): > 20000 nM

SMILES: O=C1Nc2ccc(Br)cc2/C1=C/c1[nH]cc2c1CCOC2=O
- IC50 (CDK2): 240 nM
- IC50 (EGFR (mouse)): > 20000 nM

SMILES: O=C1Nc2ccc3c(c2/C1=C/c1[nH]cc2c1CCOC2=O)CCOS3(=O)=O
- IC50 (CDK2): 130 nM
- IC50 (EGFR (mouse)): > 20000 nM

SMILES: O=C1Nc2ccc(C(=O)N3CCCC3)cc2/C1=C/c1[nH]cc2c1CCNC2=O
- IC50 (CDK2): 70 nM
- IC50 (EGFR (mouse)): > 20000 nM

SMILES: CC(C)NS(=O)(=O)c1ccc2c(c1)/C(=C/c1[nH]cc3c1CCOC3=O)C(=O)N2
- IC50 (CDK2): 60 nM
- IC50 (EGFR (mouse)): > 20000 nM

SMILES: O=C1Nc2ccc(-c3ccccc3)cc2/C1=C/c1[nH]cc2c1CCOC2=O
- IC50 (CDK2): 3840 nM
- IC50 (EGFR (mouse)): > 20000 nM

SMILES: CNS(=O)(=O)c1ccc2c(c1)/C(=C/c1[nH]cc3c1CCOC3=O)C(=O)N2
- IC50 (CDK2): 5 nM
- IC50 (EGFR (mouse)): > 20000 nM

SMILES: O=C1Nc2cc(Br)ccc2/C1=C/c1[nH]cc2c1CCNC2=O
- IC50 (CDK2): > 10000 nM
- IC50 (EGFR (mouse)): > 20000 nM

SMILES: NS(=O)(=O)c1ccc2c(c1)/C(=C/c1[nH]cc3c1CCNC3=O)C(=O)N2
- IC50 (CDK2): < 5 nM
- IC50 (EGFR (mouse)): > 20000 nM

SMILES: COc1ccc2c(c1)/C(=C/c1[nH]cc3c1CCOC3=O)C(=O)N2
- IC50 (CDK2): 40 nM
- IC50 (EGFR (mouse)): > 20000 nM

SMILES: O=C1Nc2ccc(-c3cccc(C(=O)O)c3)cc2/C1=C/c1[nH]cc2c1CCOC2=O
- IC50 (CDK2): 6710 nM
- IC50 (EGFR (mouse)): > 20000 nM

SMILES: O=C1Nc2ccc(S(=O)(=O)Nc3ccccc3)cc2/C1=C/c1[nH]cc2c1CCOC2=O
- IC50 (CDK2): 40 nM
- IC50 (EGFR (mouse)): > 20000 nM

SMILES: O=C1Nc2cc(Br)ccc2/C1=C/c1[nH]cc2c1CCOC2=O
- IC50 (CDK2): 970 nM
- IC50 (EGFR (mouse)): > 20000 nM

SMILES: CN(C)C(=O)c1ccc2c(c1)/C(=C/c1[nH]cc3c1CCNC3=O)C(=O)N2
- IC50 (CDK2): 90 nM
- IC50 (EGFR (mouse)): > 20000 nM

SMILES: O=C1Nc2ccc(S(=O)(=O)Nc3cccc(Cl)c3)cc2/C1=C/c1[nH]cc2c1CCOC2=O
- IC50 (CDK2): 490 nM
- IC50 (EGFR (mouse)): > 20000 nM

SMILES: O=C1Nc2cc(-c3ccccc3)ccc2/C1=C/c1[nH]cc2c1CCNC2=O
- IC50 (CDK2): 6010 nM
- IC50 (EGFR (mouse)): > 20000 nM

SMILES: COc1ccc(-c2ccc3c(c2)NC(=O)/C3=C\c2[nH]cc3c2CCOC3=O)cc1
- IC50 (CDK2): 1000 nM
- IC50 (EGFR (mouse)): > 20000 nM

SMILES: O=C1Nc2ccc(Br)cc2/C1=C/c1[nH]cc2c1CCNC2=O
- IC50 (CDK2): 530 nM
- IC50 (EGFR (mouse)): > 20000 nM

SMILES: O=C1Nc2cc(Cl)ccc2/C1=C/c1[nH]cc2c1CCOC2=O
- IC50 (CDK2): 410 nM
- IC50 (EGFR (mouse)): > 20000 nM

SMILES: CN(C)S(=O)(=O)c1ccc2c(c1)/C(=C/c1[nH]cc3c1CCNC3=O)C(=O)N2
- IC50 (CDK2): 100 nM
- IC50 (EGFR (mouse)): > 20000 nM

SMILES: CC(=O)Nc1ccc2c(c1)NC(=O)/C2=C\c1[nH]cc2c1CCOC2=O
- IC50 (CDK2): 7860 nM
- IC50 (EGFR (mouse)): > 20000 nM

SMILES: O=C1Nc2ccc(C(=O)O)cc2/C1=C/c1[nH]cc2c1CCOC2=O
- IC50 (CDK2): 4 nM
- IC50 (EGFR (mouse)): > 20000 nM

SMILES: O=C1Nc2cc(-c3cccc(C(=O)O)c3)ccc2/C1=C/c1[nH]cc2c1CCOC2=O
- IC50 (CDK2): 5360 nM
- IC50 (EGFR (mouse)): 18700 nM

SMILES: O=C1Nc2c(Cl)cccc2/C1=C/c1[nH]cc2c1CCOC2=O
- IC50 (CDK2): 2580 nM
- IC50 (EGFR (mouse)): > 20000 nM

SMILES: O=C1Nc2ccc(S(=O)(=O)N3CCc4ccccc4C3)cc2/C1=C/c1[nH]cc2c1CCOC2=O
- IC50 (CDK2): 730 nM
- IC50 (EGFR (mouse)): > 20000 nM

SMILES: Cc1cccc2c1/C(=C/c1[nH]cc3c1CCOC3=O)C(=O)N2
- IC50 (CDK2): 270 nM
- IC50 (EGFR (mouse)): > 20000 nM

SMILES: O=C1Nc2cccc(CCO)c2/C1=C/c1[nH]cc2c1CCOC2=O
- IC50 (CDK2): 30 nM
- IC50 (EGFR (mouse)): > 20000 nM

SMILES: O=C1Nc2cccc(CCO)c2/C1=C/c1[nH]cc2c1CCNC2=O
- IC50 (CDK2): 450 nM
- IC50 (EGFR (mouse)): > 20000 nM

SMILES: O=C1Nc2cc(C(=O)O)ccc2/C1=C/c1[nH]cc2c1CCOC2=O
- IC50 (CDK2): 1080 nM
- IC50 (EGFR (mouse)): > 20000 nM

SMILES: COc1cccc(-c2ccc3c(c2)NC(=O)/C3=C\c2[nH]cc3c2CCOC3=O)c1
- IC50 (CDK2): > 10000 nM
- IC50 (EGFR (mouse)): > 20000 nM

SMILES: COc1ccccc1-c1ccc2c(c1)NC(=O)/C2=C\c1[nH]cc2c1CCOC2=O
- IC50 (CDK2): > 10000 nM
- IC50 (EGFR (mouse)): > 20000 nM
